# Test results taken from patent publication US7026360B1, “Pharmaceutical compositions containing compounds with activity for the enhancement of absorption of active ingredients” (Inpharma S.A., priority 1999, dated 2006).
# Assay: Absorption after 8 hours of topical antiinflammatory formulations with or without 3% PFPE through pig skin, Franz cells (Example C)
# Format: in vitro ADME
# Settings: topical formulation; for mcg of permeated active ingredient after 8 hours, Base formula: base formula without PFPE
# Description: Apparatus: Franz Cells (manufacturer: Crown Glass Company Inc., New Jersey) Franz diffusion cells are one of the main systems used for the investigation of ex-vivo permeation. This study involved the use of three cells each with a 9 mm diameter donor compartment corresponding with a diffusion area of 64 mm^2. The receptor compartment has a capacity of 4.8 ml. The receptor chamber is heated to 37° C.± 1. The pig skin is placed between the donor compartment and the receptor chamber with the external skin surface facing the upper compartment. The test formulation is placed inside the donor compartment. The receptor chamber is filled with a phosphate buffer solution at pH 7.4 and at intervals between 0.5 and 8 hours, 2 ml of solution are drawn from this chamber. When each sample is taken fresh buffer solution heated to 37° C. is added in order to replenish the initial volume. The samples are then tested using a HPLC method. Each test is repeated three times. Verification of absorption after 8 hours, of topical formulations containing antiinflammatory drugs versus formulations which also contain 3% PFPE, through pig skin, using Franz cells, as described in Example A.
"mcg of permeated active ingredient after 8 hours, Base formula + 3% PFPE","mcg of permeated active ingredient after 8 hours, Base formula",SMILES
8.66 µg,1.82 µg,O=C(O)Cc1ccccc1Nc1c(Cl)cccc1Cl [Diclofenac Sodium]
9.93 µg,0.53 µg,CCc1cccc2c3c([nH]c12)C(CC)(CC(=O)O)OCC3 (centres unmarked) [Etodolic Acid]
6.84 µg,0.21 µg,CC(C)Cc1ccc(C(C)C(=O)O)cc1 (centres unmarked) [Ibuprofen]
7.94 µg,1.19 µg,CN1C(C(=O)Nc2ccccn2)=C(O)c2ccccc2S1(=O)=O [Piroxicam]
